Experiments:
Human δ-opioid (DOP) = target: T1, Human δ-opioid (DOP) (Homo sapiens, UniProt P41143); test: Radioligand binding, human δ-opioid (DOP) membranes, FlashPlate, [3H]-Bremazocine; conditions: compound at 10 μM, [3H]-Bremazocine
T1 construct: purchased Perkin Elmer Biosignal
Method in brief: (§1)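 Cloned human receptor membranes were coated onto FlashPlate wells and incubated with radioligand and compound (added from a 0.5 mM DMSO daughter plate) for 1 hour at room temperature in the dark. Scintillation counting gave percent inhibition, with DMSO defining total and reference ligand defining non-specific binding.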

Human κ-Opioid (KOP) = target: T2, Human κ-Opioid (KOP) (Homo sapiens, UniProt P41145); test: Radioligand binding, human κ-opioid (KOP) membranes, filtration, [3H]-Diprenorphine; conditions: compound at 10 μM, [3H]-Diprenorphine
T2 construct: purchased Perkin Elmer Biosignal
Method in brief: (§2)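 Filtration binding on cloned human receptor membranes (1 Unit/well), [125I]-Substance P for NK1 and [3H]-Diprenorphine for KOP, 1 h at room temperature. Filters PEI-presoaked, washed with cold 50 mM Tris-HCl pH 7.4, counted by scintillation; percent inhibition calculated, reference ligand defining non-specific binding.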

Human Melanocortin (MC3) = target: T3, Human Melanocortin (MC3) (Homo sapiens, UniProt P41968); test: Radioligand binding, human melanocortin MC3 membranes, FlashPlate, [125I]-NDP-αMSH; conditions: compound at 10 μM, [125I]-NDP-αMSH
T3 construct: purchased Perkin Elmer Biosignal
Method in brief: as §1

Human Melanocortin (MC4) = target: T4, Human Melanocortin (MC4) (Homo sapiens, UniProt P32245); test: Radioligand binding, human melanocortin MC4 membranes, FlashPlate, [125I]-NDP-αMSH; conditions: compound at 10 μM, [125I]-NDP-αMSH
T4 construct: purchased Perkin Elmer Biosignal
Method in brief: as §1

Human melanocortin (MC5) = target: T5, Human melanocortin (MC5) (Homo sapiens, UniProt P33032); test: Radioligand binding, human melanocortin MC5 membranes, FlashPlate, [125I]-NDP-αMSH; conditions: compound at 10 μM, [125I]-NDP-αMSH
T5 construct: purchased Perkin Elmer Biosignal
Method in brief: as §1

[1] = target: T6, Human melanin-concentrating hormone (MCH1) (Homo sapiens, UniProt Q99705); test: Radioligand binding, human melanin-concentrating hormone MCH1 membranes, FlashPlate, [125I]-S36057; conditions: compound at 10 μM
T6 construct: purchased Perkin Elmer Biosignal
Method in brief: as §1

Human μ-opioid (MOP) = target: T7, Human μ-opioid (MOP) (Homo sapiens, UniProt P35372); test: Radioligand binding, human μ-opioid (MOP) membranes, FlashPlate, [3H]-Naloxone; conditions: compound at 10 μM, [3H]-Naloxone
T7 construct: purchased Perkin Elmer Biosignal
Method in brief: as §1

Human neurokinin (NK1) = target: T8, Human neurokinin (NK1) (Homo sapiens, UniProt P25103); test: Radioligand binding, human neurokinin NK1 membranes, filtration, [125I]-Substance P; conditions: compound at 10 μM, [125I]-Substance P
T8 construct: purchased Perkin Elmer Biosignal
Method in brief: as §2

[2] = target: T9, Human neuropeptide Y (NPY-Y1) (Homo sapiens, UniProt P25929); test: Radioligand binding, human neuropeptide Y NPY-Y1 membranes, FlashPlate, [125I]-PYY; conditions: compound at 10 μM, [125I]-PYY
T9 construct: purchased Perkin Elmer Biosignal
T9 sequence (P25929 1-384): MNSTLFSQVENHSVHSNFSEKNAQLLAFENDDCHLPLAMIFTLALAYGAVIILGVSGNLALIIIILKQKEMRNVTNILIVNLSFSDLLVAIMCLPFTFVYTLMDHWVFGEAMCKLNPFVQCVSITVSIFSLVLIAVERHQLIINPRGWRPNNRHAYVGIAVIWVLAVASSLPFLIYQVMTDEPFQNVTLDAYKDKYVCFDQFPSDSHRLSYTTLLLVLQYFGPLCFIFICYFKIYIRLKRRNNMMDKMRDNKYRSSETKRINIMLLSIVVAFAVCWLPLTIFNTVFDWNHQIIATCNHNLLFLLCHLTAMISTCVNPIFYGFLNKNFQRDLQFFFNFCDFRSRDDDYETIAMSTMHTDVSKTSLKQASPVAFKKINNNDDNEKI
Method in brief: as §1

Human opioid (ORL1) = target: T10, Human opioid (ORL1) (Homo sapiens, UniProt P41146); test: Radioligand binding, human opioid ORL1 membranes, FlashPlate, [125I]-Nociceptin; conditions: compound at 10 μM, [125I]-Nociceptin
T10 construct: purchased Perkin Elmer Biosignal
Method in brief: as §1

Mouse urotensin (mUR2) = target: T11, Mouse urotensin (mUR2) (Mus musculus, UniProt Q8VIH9); test: Radioligand binding, mouse urotensin mUR2 membranes, FlashPlate, [125I]-Urotensin II; conditions: compound at 10 μM, [125I]-Urotensin II
T11 construct: purchased Perkin Elmer Biosignal
T11 sequence (Q8VIH9 1-385): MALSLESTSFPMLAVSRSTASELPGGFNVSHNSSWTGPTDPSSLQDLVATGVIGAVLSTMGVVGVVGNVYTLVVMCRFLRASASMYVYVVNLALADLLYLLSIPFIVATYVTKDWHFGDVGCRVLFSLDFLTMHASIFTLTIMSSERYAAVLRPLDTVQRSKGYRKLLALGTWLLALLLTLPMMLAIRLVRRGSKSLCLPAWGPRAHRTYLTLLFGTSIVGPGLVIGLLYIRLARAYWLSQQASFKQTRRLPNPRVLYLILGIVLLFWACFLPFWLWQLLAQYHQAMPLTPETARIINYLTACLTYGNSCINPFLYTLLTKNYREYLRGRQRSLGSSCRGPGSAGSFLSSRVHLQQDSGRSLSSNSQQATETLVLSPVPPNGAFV
Method in brief: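 Cloned mouse urotensin (mUR2) receptor membranes from Perkin Elmer Biosignal were immobilized in FlashPlate microplates using a proprietary coating. Each well got 19.5 μl buffer, then 0.5 μl of DMSO, reference ligand, or compound. Adding 5 μl of [125I]-Urotensin II, diluted to 5× final concentration in binding buffer, started binding. Plates were sealed with TopSeal-A and incubated 1 hour at room temperature in the dark. Wells were counted for 30 seconds each on a TopCount after a 60-second delay, and percentage inhibition was calculated.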

[3] = [125I]-S36057, human MCH1 membranes

T2 sequence (P41145 whole entry): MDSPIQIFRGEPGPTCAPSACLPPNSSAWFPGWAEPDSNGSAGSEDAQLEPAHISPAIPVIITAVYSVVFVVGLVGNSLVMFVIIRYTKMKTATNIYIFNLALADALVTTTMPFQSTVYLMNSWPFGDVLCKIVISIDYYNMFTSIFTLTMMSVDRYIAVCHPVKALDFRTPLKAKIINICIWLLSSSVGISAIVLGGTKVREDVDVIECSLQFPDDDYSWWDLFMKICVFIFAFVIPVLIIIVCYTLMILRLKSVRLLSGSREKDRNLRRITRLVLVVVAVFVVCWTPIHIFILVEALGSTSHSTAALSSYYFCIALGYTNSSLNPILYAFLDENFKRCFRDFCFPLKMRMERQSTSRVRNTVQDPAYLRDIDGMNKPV
T7 sequence (P35372 whole entry): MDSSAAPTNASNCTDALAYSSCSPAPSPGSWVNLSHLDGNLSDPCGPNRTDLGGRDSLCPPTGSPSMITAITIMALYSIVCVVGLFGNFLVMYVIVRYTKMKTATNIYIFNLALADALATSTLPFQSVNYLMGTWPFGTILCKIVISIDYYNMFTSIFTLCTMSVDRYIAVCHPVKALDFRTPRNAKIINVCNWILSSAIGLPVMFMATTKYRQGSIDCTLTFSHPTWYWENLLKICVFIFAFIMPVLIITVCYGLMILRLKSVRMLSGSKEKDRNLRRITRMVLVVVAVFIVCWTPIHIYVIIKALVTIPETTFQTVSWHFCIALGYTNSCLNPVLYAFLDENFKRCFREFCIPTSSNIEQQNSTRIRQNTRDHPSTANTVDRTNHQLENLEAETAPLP
T4 sequence (P32245 whole entry): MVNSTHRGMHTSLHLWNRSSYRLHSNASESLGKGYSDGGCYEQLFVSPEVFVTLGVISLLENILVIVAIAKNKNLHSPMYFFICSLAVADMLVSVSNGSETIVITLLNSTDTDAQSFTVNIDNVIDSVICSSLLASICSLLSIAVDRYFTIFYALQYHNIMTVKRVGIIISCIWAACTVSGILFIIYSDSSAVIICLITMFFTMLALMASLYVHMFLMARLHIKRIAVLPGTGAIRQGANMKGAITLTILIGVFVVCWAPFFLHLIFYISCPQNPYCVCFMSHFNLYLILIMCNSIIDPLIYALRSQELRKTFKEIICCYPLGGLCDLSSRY
T6 sequence (Q99705 whole entry): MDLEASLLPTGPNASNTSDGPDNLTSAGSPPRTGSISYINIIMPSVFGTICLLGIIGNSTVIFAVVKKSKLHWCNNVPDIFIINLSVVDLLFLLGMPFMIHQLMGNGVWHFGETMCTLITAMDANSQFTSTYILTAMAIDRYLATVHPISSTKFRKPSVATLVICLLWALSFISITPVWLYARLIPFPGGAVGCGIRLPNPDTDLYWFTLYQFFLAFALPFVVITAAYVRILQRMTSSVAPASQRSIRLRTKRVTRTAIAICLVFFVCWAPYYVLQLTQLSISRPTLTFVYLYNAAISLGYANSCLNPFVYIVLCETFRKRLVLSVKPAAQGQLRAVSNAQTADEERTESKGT
T10 sequence (P41146 whole entry): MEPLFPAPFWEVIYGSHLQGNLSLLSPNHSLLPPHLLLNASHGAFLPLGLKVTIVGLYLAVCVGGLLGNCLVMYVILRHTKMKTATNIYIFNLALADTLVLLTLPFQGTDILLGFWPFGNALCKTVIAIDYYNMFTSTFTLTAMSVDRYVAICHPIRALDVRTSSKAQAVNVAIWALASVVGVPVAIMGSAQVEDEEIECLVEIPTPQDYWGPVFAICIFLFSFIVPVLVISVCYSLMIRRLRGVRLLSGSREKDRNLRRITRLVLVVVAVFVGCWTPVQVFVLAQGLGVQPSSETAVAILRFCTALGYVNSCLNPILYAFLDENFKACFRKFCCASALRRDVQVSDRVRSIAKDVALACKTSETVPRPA
T5 sequence (P33032 whole entry): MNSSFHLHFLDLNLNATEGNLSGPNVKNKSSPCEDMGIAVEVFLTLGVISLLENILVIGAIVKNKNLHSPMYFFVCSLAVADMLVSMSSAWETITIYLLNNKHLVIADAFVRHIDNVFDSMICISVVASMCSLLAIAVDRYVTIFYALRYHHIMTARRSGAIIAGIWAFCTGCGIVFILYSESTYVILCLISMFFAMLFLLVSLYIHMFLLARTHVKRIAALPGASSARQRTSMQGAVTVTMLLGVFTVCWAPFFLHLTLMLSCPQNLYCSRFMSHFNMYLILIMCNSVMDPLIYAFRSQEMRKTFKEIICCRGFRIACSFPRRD
T8 sequence (P25103 whole entry): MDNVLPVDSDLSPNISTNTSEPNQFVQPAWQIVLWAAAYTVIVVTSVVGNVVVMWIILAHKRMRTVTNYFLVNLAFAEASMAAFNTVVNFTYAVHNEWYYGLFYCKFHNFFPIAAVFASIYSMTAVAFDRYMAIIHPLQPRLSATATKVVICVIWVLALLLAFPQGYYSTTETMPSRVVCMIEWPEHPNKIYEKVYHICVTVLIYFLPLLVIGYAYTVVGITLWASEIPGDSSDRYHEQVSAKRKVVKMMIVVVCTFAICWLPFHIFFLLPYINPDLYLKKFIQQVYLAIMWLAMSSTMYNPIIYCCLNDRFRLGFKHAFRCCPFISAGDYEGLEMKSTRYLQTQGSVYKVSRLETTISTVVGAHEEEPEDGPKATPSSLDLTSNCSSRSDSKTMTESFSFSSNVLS
T1 sequence (P41143 whole entry): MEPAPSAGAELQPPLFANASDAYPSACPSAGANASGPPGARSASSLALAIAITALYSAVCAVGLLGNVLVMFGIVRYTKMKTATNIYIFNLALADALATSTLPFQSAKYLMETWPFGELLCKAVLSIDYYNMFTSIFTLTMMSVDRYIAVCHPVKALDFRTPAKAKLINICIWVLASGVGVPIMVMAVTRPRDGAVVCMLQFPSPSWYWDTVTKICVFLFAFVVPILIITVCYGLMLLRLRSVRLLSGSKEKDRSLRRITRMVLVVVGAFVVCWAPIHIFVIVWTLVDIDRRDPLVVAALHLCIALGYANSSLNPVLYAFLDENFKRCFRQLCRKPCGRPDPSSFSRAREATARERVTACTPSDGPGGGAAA
T3 sequence (P41968 whole entry): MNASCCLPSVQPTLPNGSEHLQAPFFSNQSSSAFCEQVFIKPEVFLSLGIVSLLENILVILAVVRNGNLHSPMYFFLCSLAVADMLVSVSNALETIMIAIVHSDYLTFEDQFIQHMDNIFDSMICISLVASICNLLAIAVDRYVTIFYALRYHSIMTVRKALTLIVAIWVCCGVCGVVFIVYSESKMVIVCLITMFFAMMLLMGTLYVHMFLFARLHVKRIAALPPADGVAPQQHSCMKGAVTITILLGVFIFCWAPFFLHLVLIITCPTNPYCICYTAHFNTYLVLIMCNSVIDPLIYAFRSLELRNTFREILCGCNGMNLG

| SMILES | A1: inhibition of radioligand binding (Human δ-opioid (DOP); human DOP membranes) | A2: inhibition of radioligand binding (Human κ-Opioid (KOP); human KOP membranes) | A3: inhibition of radioligand binding (Human Melanocortin (MC3); human MC3 membranes) | A4: inhibition of radioligand binding (Human Melanocortin (MC4); human MC4 membranes) | A5: inhibition of radioligand binding (Human melanocortin (MC5); human MC5 membranes) | A6: inhibition of radioligand binding [1, 3] | A7: inhibition of radioligand binding (Human μ-opioid (MOP); human MOP membranes) | A8: inhibition of radioligand binding (Human neurokinin (NK1); human NK1 membranes) | A9: inhibition of radioligand binding ([2]; human NPY-Y1 membranes) | A10: inhibition of radioligand binding (Human opioid (ORL1); human ORL1 membranes) | A11: inhibition of radioligand binding (Mouse urotensin (mUR2); mouse mUR2 membranes) | A1: inhibition of radioligand binding (Human δ-opioid (DOP); FlashPlate) | A2: inhibition of radioligand binding (Human κ-Opioid (KOP); filtration) | A3: inhibition of radioligand binding (Human Melanocortin (MC3); FlashPlate) | A4: inhibition of radioligand binding (Human Melanocortin (MC4); FlashPlate) | A5: inhibition of radioligand binding (Human melanocortin (MC5); FlashPlate) | A6: inhibition of radioligand binding ([1]; [125I]-S36057, FlashPlate) | A7: inhibition of radioligand binding (Human μ-opioid (MOP); FlashPlate) | A8: inhibition of radioligand binding (Human neurokinin (NK1); filtration) | A9: inhibition of radioligand binding ([2]; FlashPlate) | other results |
| --- | --- | --- | --- | --- | --- | --- | --- | --- | --- | --- | --- | --- | --- | --- | --- | --- | --- | --- | --- | --- | --- |
| NCCC(=O)NC1C(OCc2ccc3ccccc3c2)OC(COCc2ccc3ccccc3c2)C(O)C1OCc1ccccc1 (stereo not shown) [compound 387] | − (“−” indicates less than 50% inhibition at 10 μM) | − (“−” indicates less than 50% inhibition at 10 μM) | + (“+” indicates greater than 50% inhibition at 10 μM) | + (“+” indicates greater than 50% inhibition at 10 μM) | + (“+” indicates greater than 50% inhibition at 10 μM) | − (“−” indicates less than 50% inhibition at 10 μM) | − (“−” indicates less than 50% inhibition at 10 μM) | + (“+” indicates greater than 50% inhibition at 10 μM) | − (“−” indicates less than 50% inhibition at 10 μM) | − (“−” indicates less than 50% inhibition at 10 μM) | − (“−” indicates less than 50% inhibition at 10 μM) | – | – | – | – | – | – | – | – | – | – |
| NCCC(=O)NC1C(OCc2ccc(Cl)cc2)OC(COCc2ccc(Cl)cc2)C(O)C1OCc1ccccc1 (single isomer, unassigned) [compound 488] | – | – | – | – | – | – | – | – | – | – | – | – | – | – | – | – | – | – | – | – | A1: inhibition of radioligand binding, human δ-opioid (DOP) (Human δ-opioid (DOP)): − (“−” indicates less than 50% inhibition at 10 μM); A2: inhibition of radioligand binding, human κ-opioid (KOP) (Human κ-Opioid (KOP)): − (“−” indicates less than 50% inhibition at 10 μM); A3: inhibition of radioligand binding, human melanocortin (MC3) (Human Melanocortin (MC3)): − (“−” indicates less than 50% inhibition at 10 μM); A4: inhibition of radioligand binding, human melanocortin (MC4) (Human Melanocortin (MC4); 10 µM): + (“+” indicates greater than 50% inhibition at 10 μM); A5: inhibition of radioligand binding, human melanocortin (MC5) (Human melanocortin (MC5)): + (“+” indicates greater than 50% inhibition at 10 μM); A6: inhibition of radioligand binding, human melanin-concentrating hormone (MCH1) ([1]; [125I]-S36057): − (“−” indicates less than 50% inhibition at 10 μM); A7: inhibition of radioligand binding, human μ-opioid (MOP) (Human μ-opioid (MOP); 10 µM): − (“−” indicates less than 50% inhibition at 10 μM); A8: inhibition of radioligand binding, human neurokinin (NK1) (Human neurokinin (NK1); 10 µM): + (“+” indicates greater than 50% inhibition at 10 μM); A9: inhibition of radioligand binding, human neuropeptide Y (NPY-Y1) [2]: − (“−” indicates less than 50% inhibition at 10 μM); A10: inhibition of radioligand binding, human opioid (ORL1) (Human opioid (ORL1); 10 µM): + (“+” indicates greater than 50% inhibition at 10 μM); A11: inhibition of radioligand binding, mouse urotensin (mUR2) (Mouse urotensin (mUR2)): − (“−” indicates less than 50% inhibition at 10 μM) |
| CSC1OC(COCc2ccc(-c3ccccc3)cc2)C(O)C(OCc2ccccc2)C1NC(=O)CNC(=N)N (stereo not shown) [compound 255] | – | – | – | – | – | – | – | – | – | – | – | − (“−” indicates less than 50% inhibition at 10 μM) | − (“−” indicates less than 50% inhibition at 10 μM) | − (“−” indicates less than 50% inhibition at 10 μM) | + (“+” indicates greater than 50% inhibition at 10 μM) | + (“+” indicates greater than 50% inhibition at 10 μM) | − (“−” indicates less than 50% inhibition at 10 μM) | − (“−” indicates less than 50% inhibition at 10 μM) | + (“+” indicates greater than 50% inhibition at 10 μM) | − (“−” indicates less than 50% inhibition at 10 μM) | A10: inhibition of radioligand binding (Human opioid (ORL1); FlashPlate): − (“−” indicates less than 50% inhibition at 10 μM); A11: inhibition of radioligand binding (Mouse urotensin (mUR2); FlashPlate): − (“−” indicates less than 50% inhibition at 10 μM) |
| N=C(N)NCC(=O)NC1C(OCc2ccc(-c3ccccc3)cc2)OC(COCc2ccc(Cl)cc2)C(O)C1OCc1ccc(-c2ccccc2)cc1 (stereo not shown) [compound 407] | − (“−” indicates less than 50% inhibition at 10 μM) | − (“−” indicates less than 50% inhibition at 10 μM) | + (“+” indicates greater than 50% inhibition at 10 μM) | + (“+” indicates greater than 50% inhibition at 10 μM) | + (“+” indicates greater than 50% inhibition at 10 μM) | + (“+” indicates greater than 50% inhibition at 10 μM) | − (“−” indicates less than 50% inhibition at 10 μM) | + (“+” indicates greater than 50% inhibition at 10 μM) | − (“−” indicates less than 50% inhibition at 10 μM) | + (“+” indicates greater than 50% inhibition at 10 μM) | − (“−” indicates less than 50% inhibition at 10 μM) | – | – | – | – | – | – | – | – | – | – |
| CSC1O[C@H](COCc2ccc(Cl)cc2)[C@@H](O)[C@@H](OCc2ccc(Cl)cc2)[C@H]1NC(=O)CCNC(=N)N (stereo partly shown) [compound 272] | – | – | – | – | – | – | – | – | – | – | – | − (“−” indicates less than 50% inhibition at 10 μM) | − (“−” indicates less than 50% inhibition at 10 μM) | − (“−” indicates less than 50% inhibition at 10 μM) | + (“+” indicates greater than 50% inhibition at 10 μM) | + (“+” indicates greater than 50% inhibition at 10 μM) | − (“−” indicates less than 50% inhibition at 10 μM) | − (“−” indicates less than 50% inhibition at 10 μM) | + (“+” indicates greater than 50% inhibition at 10 μM) | − (“−” indicates less than 50% inhibition at 10 μM) | A10: inhibition of radioligand binding (Human opioid (ORL1); FlashPlate): − (“−” indicates less than 50% inhibition at 10 μM); A11: inhibition of radioligand binding (Mouse urotensin (mUR2); FlashPlate): − (“−” indicates less than 50% inhibition at 10 μM) |
